Laboratory results from ChEMBL document CHEMBL1201862, “PubChem BioAssay data set” (2004).
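1) Cells in 96-well plates. 2) Compound, 48 h, 5 concentrations. 3) Linear interpolation between surrounding doses. 4) Unreached endpoint = highest concentration. GI50 marks 50% less growth.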 Calls of active or inactive are those of the source. Cut-off read from the data, not from the text of the source: active = GI50 up to about 1.1 µM and inactive = higher.

Experiments:
Assay in all cases: NCI anticancer screen, dose series, 48 h
M14 = test system: M14
MDA-MB-435 = test system: MDA-MB-435
EKVX = test system: EKVX
A498 = test system: A498
ACHN = test system: ACHN
U-251 = test system: U-251
HOP-62 = test system: HOP-62
SW-620 = test system: SW-620
IGROV-1 = test system: IGROV-1
NCI/ADR-RES = test system: NCI/ADR-RES
KM12 = test system: KM12
NCI-H460 = test system: NCI-H460
TK-10 = test system: TK-10
HOP-92 = test system: HOP-92
HCC 2998 = test system: HCC 2998
RPMI-8226 = test system: RPMI-8226
BT-549 = test system: BT-549
SF-539 = test system: SF-539
SR = test system: SR

Structure (SMILES) | GI50 (M14) | GI50 (MDA-MB-435) | GI50 (EKVX) | GI50 (A498) | GI50 (ACHN) | GI50 (U-251) | GI50 (HOP-62) | GI50 (SW-620) | GI50 (IGROV-1) | GI50 (NCI/ADR-RES) | GI50 (KM12) | GI50 (NCI-H460) | GI50 (TK-10) | GI50 (HOP-92) | GI50 (HCC 2998) | GI50 (RPMI-8226) | GI50 (BT-549) | GI50 (SF-539) | GI50 (SR)
Clc1ccc(CSc2ncnc3c2ncn3C2CCCCO2)cc1 (stereo not given) | 17.1 µM (inactive) | 18.2 µM (inactive) | 13.4 µM (inactive) | 16.4 µM (inactive) | 16.1 µM (inactive) | 19.6 µM (inactive) | 18.7 µM (inactive) | 29.9 µM (inactive) | 30.3 µM (inactive) | 17.9 µM (inactive) | 19.1 µM (inactive) | 16.9 µM (inactive) | 21.8 µM (inactive) | 24.7 µM (inactive) | 18.6 µM (inactive) | 14.3 µM (inactive) | 24.3 µM (inactive) | – | –
NC(=O)CCC(NC(=O)c1c2ccccc2nc2ccccc12)C(=O)O (stereo not given) | > 100 µM (inactive) | > 100 µM (inactive) | > 100 µM (inactive) | > 100 µM (inactive) | > 100 µM (inactive) | > 100 µM (inactive) | > 100 µM (inactive) | > 100 µM (inactive) | > 100 µM (inactive) | > 100 µM (inactive) | > 100 µM (inactive) | > 100 µM (inactive) | > 100 µM (inactive) | > 100 µM (inactive) | > 100 µM (inactive) | > 100 µM (inactive) | > 100 µM (inactive) | > 100 µM (inactive) | –
COc1ccc(/C(Nc2ccccc2)=C(\CCl)c2ccccc2)cc1OC | 41.4 µM (inactive) | 32.8 µM (inactive) | 24.3 µM (inactive) | > 100 µM (inactive) | 31.9 µM (inactive) | 6.53 µM (inactive) | > 100 µM (inactive) | 46.2 µM (inactive) | > 100 µM (inactive) | 32.1 µM (inactive) | 57.1 µM (inactive) | 41.8 µM (inactive) | 41.5 µM (inactive) | 37.6 µM (inactive) | 48.1 µM (inactive) | 21.2 µM (inactive) | 33.2 µM (inactive) | > 100 µM (inactive) | –
OCCOCn1nncc1Cn1ncc2c(SCc3ccccc3)ncnc21 | 59.3 µM (inactive) | 45.9 µM (inactive) | > 100 µM (inactive) | > 100 µM (inactive) | > 100 µM (inactive) | > 100 µM (inactive) | > 100 µM (inactive) | 15.6 µM (inactive) | 51.1 µM (inactive) | > 100 µM (inactive) | > 100 µM (inactive) | > 100 µM (inactive) | > 100 µM (inactive) | 80.9 µM (inactive) | > 100 µM (inactive) | – | > 100 µM (inactive) | 65 µM (inactive) | –
Cc1[nH]c(=O)c2oc3cc4ccccc4cc3c2c1C(=O)O | > 10 µM (inactive) | > 10 µM (inactive) | > 10 µM (inactive) | – | > 10 µM (inactive) | > 10 µM (inactive) | – | > 10 µM (inactive) | > 10 µM (inactive) | > 10 µM (inactive) | > 10 µM (inactive) | > 10 µM (inactive) | > 10 µM (inactive) | > 10 µM (inactive) | > 10 µM (inactive) | – | > 10 µM (inactive) | > 10 µM (inactive) | > 10 µM (inactive)
COc1cccc(Nc2nc(C)c([N+](=O)[O-])c(Nc3cccc(OC)c3)n2)c1 | 10.4 µM (inactive) | – | 6.35 µM (inactive) | 9.35 µM (inactive) | 19.4 µM (inactive) | 49.1 µM (inactive) | 12.1 µM (inactive) | > 100 µM (inactive) | 14.6 µM (inactive) | 2.92 µM (inactive) | – | 3.95 µM (inactive) | 16.8 µM (inactive) | 6.08 µM (inactive) | – | 5.06 µM (inactive) | 1.85 µM (inactive) | 29 µM (inactive) | 7.76 µM (inactive)
CC(=O)OC1CC2(C)C(OC(C)=O)CC1C2(C)C (stereo not given) | > 100 µM (inactive) | > 100 µM (inactive) | – | – | > 100 µM (inactive) | > 100 µM (inactive) | > 100 µM (inactive) | > 100 µM (inactive) | > 100 µM (inactive) | > 100 µM (inactive) | > 100 µM (inactive) | > 100 µM (inactive) | > 100 µM (inactive) | > 100 µM (inactive) | > 100 µM (inactive) | > 100 µM (inactive) | > 100 µM (inactive) | > 100 µM (inactive) | > 100 µM (inactive)
O=C(C1OC1c1ccc(F)cc1)C12CC3CC(CC(C3)C1)C2 (stereo not given) | 15.7 µM (inactive) | 11.9 µM (inactive) | 19.3 µM (inactive) | 28.2 µM (inactive) | 30 µM (inactive) | 11.4 µM (inactive) | 27 µM (inactive) | 17.2 µM (inactive) | 19 µM (inactive) | 21.2 µM (inactive) | 15.7 µM (inactive) | 13.3 µM (inactive) | 35.2 µM (inactive) | 20.3 µM (inactive) | 20.1 µM (inactive) | – | 15.6 µM (inactive) | 21.2 µM (inactive) | –
COc1cccc2c1OC(c1ccc(Cl)cc1)C([N+](=O)[O-])=C2 (stereo not given) | 1.11 µM (active) | 2.42 µM (inactive) | 11.7 µM (inactive) | – | 1.46 µM (inactive) | 2.38 µM (inactive) | 2.1 µM (inactive) | – | 2.25 µM (inactive) | 3.79 µM (inactive) | 2.08 µM (inactive) | 1.58 µM (inactive) | 4.95 µM (inactive) | – | – | 1.52 µM (inactive) | 1.24 µM (inactive) | – | 0.538 µM (active)
CC(C)(C)O/C=C1/C(=O)OC2C[C@@H](O[Si](C)(C)C(C)(C)C)CC12 (stereo not given in full) | 54.6 µM (inactive) | 77.6 µM (inactive) | > 100 µM (inactive) | > 100 µM (inactive) | 72.6 µM (inactive) | 48 µM (inactive) | > 100 µM (inactive) | 54.3 µM (inactive) | 72.6 µM (inactive) | 55.1 µM (inactive) | 65.2 µM (inactive) | 79.8 µM (inactive) | > 100 µM (inactive) | 43.7 µM (inactive) | > 100 µM (inactive) | – | 56.5 µM (inactive) | – | –
CC1(C)C2CCC1(CC(=O)O)C(Cl)C2 (stereo not given) | > 100 µM (inactive) | > 100 µM (inactive) | > 100 µM (inactive) | > 100 µM (inactive) | > 100 µM (inactive) | > 100 µM (inactive) | > 100 µM (inactive) | > 100 µM (inactive) | > 100 µM (inactive) | > 100 µM (inactive) | > 100 µM (inactive) | > 100 µM (inactive) | > 100 µM (inactive) | – | > 100 µM (inactive) | > 100 µM (inactive) | > 100 µM (inactive) | > 100 µM (inactive) | –
CC1OC(O)C(O)C(O)C1O (stereo not given) | > 100 µM (inactive) | > 100 µM (inactive) | > 100 µM (inactive) | > 100 µM (inactive) | > 100 µM (inactive) | > 100 µM (inactive) | > 100 µM (inactive) | > 100 µM (inactive) | > 100 µM (inactive) | > 100 µM (inactive) | > 100 µM (inactive) | > 100 µM (inactive) | > 100 µM (inactive) | > 100 µM (inactive) | – | > 100 µM (inactive) | > 100 µM (inactive) | > 100 µM (inactive) | –
